# Earlier results in patent publication US12629369B2, “Pharmaceutical compositions of nilotinib” (AZURITY PHARMACEUTICALS, INC., priority 2019, dated 2026).
# Where a name gives a salt, the structure may show the parent alone.
# Experiments:
# [1] = taken with or after meals, particularly high fat meals (Castagnetti et al 2008)
water solubility,increase of extent of absorption (area under the plasma profile curve) [1],increase of rate of absorption (Cmax) [1],"solubility in aqueous solutions (25° C., pH 4.5 and higher)",SMILES
poorly water soluble,–,–,–,Cc1cn(-c2cc(NC(=O)c3ccc(C)c(Nc4nccc(-c5cccnc5)n4)c3)cc(C(F)(F)F)c2)cn1 [Nilotinib hydrochloride]
–,82%,112%,practically insoluble,"Cc1cn(-c2cc(NC(=O)c3ccc(C)c(Nc4nccc(-c5cccnc5)n4)c3)cc(C(F)(F)F)c2)cn1 [Nilotinib, 4-methyl-N-[3-(4-methyl-1H-imidazol-1-yl)-5-(trifluoromethyl)phenyl]-3-[[4-(3-pyridinyl)-2-pyrimidinyl]amino]-benzamide]"
